Experimental data reported in ChEMBL document CHEMBL2417394, “Exquisite selectivity for human toll-like receptor 8 in substituted furo[2,3-c]quinolines” (J Med Chem, 2013).
Calls of active or inactive are those of the source. The rule behind the calls is not given here.

Columns and labels:
[1] = biological target: T1, Toll-like receptor 8 (Homo sapiens) (UniProt Q9NR97); experiment: Modulation of human TLR8 expressed in HEK293 cells co-transfected with MD2 and sAP assessed as induction of NF-kappaB activity by reporter gene assay; type: cell-based
T1 sequence (whole entry): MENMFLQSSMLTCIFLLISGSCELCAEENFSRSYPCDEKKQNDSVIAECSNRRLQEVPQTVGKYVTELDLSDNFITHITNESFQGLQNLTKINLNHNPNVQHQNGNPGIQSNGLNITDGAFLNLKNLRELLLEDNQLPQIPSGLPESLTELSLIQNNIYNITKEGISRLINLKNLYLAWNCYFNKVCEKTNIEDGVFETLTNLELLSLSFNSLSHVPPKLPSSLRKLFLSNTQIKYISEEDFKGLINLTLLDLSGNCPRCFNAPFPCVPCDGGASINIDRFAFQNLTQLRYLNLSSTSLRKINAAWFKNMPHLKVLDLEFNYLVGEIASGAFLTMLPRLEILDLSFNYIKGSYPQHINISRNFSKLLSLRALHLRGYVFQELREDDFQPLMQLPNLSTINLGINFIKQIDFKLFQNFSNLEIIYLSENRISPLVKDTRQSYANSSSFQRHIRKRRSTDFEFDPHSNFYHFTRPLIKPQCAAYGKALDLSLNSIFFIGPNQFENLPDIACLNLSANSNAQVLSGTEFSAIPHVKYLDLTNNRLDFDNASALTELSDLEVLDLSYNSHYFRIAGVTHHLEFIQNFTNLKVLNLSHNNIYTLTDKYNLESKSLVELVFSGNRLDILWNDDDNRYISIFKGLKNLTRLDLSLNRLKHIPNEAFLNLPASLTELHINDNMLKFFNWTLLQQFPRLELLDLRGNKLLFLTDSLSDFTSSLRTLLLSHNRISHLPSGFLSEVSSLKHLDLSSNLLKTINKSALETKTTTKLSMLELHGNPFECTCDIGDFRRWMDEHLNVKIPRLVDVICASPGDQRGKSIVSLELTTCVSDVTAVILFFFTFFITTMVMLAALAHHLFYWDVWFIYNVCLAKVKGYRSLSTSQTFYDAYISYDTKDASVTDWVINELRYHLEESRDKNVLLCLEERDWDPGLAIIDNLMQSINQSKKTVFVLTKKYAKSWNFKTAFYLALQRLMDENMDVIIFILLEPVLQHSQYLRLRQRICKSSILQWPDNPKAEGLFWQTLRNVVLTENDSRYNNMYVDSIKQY

[2] = biological target: T2, Toll-like receptor 7 (Homo sapiens) (UniProt Q9NYK1); experiment: Modulation of human TLR7 expressed in HEK293 cells co-transfected with MD2 and sAP assessed as induction of NF-kappaB activity by reporter gene assay; type: cell-based
T2 sequence (whole entry): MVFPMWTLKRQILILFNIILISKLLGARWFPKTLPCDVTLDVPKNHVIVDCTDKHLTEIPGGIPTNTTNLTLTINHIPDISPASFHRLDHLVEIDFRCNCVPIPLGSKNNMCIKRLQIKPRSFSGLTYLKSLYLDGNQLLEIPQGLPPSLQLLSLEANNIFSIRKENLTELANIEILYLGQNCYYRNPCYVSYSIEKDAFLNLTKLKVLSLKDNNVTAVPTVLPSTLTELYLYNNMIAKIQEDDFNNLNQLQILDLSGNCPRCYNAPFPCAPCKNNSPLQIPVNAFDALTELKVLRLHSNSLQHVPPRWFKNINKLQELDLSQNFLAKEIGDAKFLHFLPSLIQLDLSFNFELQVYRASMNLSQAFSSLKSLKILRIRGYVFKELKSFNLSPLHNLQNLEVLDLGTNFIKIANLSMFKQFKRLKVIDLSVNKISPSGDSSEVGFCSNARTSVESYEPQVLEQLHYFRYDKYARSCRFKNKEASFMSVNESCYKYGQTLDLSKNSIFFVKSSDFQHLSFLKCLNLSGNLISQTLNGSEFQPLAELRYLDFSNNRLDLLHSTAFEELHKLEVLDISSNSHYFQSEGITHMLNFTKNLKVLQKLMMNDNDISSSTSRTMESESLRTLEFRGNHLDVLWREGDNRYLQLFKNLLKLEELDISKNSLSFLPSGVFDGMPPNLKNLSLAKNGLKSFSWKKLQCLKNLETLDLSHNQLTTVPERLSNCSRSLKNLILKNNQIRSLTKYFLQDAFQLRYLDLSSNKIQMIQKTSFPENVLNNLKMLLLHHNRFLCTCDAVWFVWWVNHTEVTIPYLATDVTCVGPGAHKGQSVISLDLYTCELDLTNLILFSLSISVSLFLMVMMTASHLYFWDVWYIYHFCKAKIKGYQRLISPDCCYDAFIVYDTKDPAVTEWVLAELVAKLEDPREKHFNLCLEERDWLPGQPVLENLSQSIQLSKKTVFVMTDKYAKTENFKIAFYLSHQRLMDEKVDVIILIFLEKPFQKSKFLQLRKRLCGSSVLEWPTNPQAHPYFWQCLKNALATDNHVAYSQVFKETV

[3] = biological target: Toll-like receptor 5 (Homo sapiens) (UniProt O60602); experiment: Modulation of human TLR5 expressed in HEK293 cells co-transfected with MD2 and sAP assessed as induction of NF-kappaB activity by reporter gene assay; type: cell-based
Toll-like receptor 5 (Homo sapiens), sequence (O60602 whole entry): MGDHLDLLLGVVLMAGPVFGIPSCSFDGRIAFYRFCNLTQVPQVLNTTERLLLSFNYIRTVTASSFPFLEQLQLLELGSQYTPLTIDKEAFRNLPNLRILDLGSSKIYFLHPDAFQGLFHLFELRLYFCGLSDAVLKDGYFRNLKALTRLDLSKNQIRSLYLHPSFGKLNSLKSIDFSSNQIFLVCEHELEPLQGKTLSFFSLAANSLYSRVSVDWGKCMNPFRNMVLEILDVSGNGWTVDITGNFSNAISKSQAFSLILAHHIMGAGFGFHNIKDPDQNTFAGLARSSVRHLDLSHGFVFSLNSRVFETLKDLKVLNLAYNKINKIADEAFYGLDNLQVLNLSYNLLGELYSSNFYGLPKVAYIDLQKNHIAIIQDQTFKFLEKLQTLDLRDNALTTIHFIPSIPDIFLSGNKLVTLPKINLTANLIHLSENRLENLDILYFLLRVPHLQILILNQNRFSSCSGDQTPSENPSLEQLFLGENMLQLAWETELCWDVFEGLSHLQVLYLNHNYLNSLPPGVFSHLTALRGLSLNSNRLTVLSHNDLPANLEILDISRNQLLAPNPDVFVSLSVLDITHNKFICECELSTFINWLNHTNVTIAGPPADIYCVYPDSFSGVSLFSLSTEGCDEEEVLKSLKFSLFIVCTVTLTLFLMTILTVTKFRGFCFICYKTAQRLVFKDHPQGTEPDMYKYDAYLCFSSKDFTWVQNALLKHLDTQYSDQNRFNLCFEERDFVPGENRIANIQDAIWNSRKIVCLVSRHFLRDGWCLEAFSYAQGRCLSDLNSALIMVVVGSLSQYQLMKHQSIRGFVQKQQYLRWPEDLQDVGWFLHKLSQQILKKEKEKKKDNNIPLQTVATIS

[4] = biological target: Toll-like receptor 4 (Homo sapiens) (UniProt O00206); experiment: Modulation of human TLR4 expressed in HEK293 cells co-transfected with MD2 and sAP assessed as induction of NF-kappaB activity by reporter gene assay; type: cell-based
Toll-like receptor 4 (Homo sapiens), sequence (O00206 whole entry): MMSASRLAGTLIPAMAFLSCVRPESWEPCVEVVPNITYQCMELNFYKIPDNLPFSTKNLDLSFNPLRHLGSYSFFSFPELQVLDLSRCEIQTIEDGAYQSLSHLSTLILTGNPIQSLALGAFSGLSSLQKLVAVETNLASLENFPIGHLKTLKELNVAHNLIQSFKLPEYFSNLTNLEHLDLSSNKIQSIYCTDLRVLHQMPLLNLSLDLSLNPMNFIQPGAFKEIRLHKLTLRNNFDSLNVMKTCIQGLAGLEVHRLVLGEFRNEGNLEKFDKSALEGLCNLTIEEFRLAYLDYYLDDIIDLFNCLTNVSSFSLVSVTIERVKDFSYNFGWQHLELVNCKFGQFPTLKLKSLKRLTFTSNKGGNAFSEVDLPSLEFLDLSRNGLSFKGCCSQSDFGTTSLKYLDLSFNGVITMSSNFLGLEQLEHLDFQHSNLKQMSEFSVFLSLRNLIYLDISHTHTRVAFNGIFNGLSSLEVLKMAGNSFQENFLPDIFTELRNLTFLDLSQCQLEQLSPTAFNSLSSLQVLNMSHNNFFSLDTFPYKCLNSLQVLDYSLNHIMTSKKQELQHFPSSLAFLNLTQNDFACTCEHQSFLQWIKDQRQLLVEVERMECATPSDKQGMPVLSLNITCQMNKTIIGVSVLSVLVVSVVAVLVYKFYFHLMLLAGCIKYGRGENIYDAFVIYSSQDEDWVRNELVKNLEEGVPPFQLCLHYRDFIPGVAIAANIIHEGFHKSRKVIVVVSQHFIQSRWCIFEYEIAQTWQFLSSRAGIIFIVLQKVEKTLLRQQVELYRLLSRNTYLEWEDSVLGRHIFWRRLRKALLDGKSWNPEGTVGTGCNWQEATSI

[5] = biological target: Toll-like receptor 3 (Homo sapiens) (UniProt O15455); experiment: Modulation of human TLR3 expressed in HEK293 cells co-transfected with MD2 and sAP assessed as induction of NF-kappaB activity by reporter gene assay; type: cell-based
Toll-like receptor 3 (Homo sapiens), sequence (O15455 whole entry, the tested form may be a part): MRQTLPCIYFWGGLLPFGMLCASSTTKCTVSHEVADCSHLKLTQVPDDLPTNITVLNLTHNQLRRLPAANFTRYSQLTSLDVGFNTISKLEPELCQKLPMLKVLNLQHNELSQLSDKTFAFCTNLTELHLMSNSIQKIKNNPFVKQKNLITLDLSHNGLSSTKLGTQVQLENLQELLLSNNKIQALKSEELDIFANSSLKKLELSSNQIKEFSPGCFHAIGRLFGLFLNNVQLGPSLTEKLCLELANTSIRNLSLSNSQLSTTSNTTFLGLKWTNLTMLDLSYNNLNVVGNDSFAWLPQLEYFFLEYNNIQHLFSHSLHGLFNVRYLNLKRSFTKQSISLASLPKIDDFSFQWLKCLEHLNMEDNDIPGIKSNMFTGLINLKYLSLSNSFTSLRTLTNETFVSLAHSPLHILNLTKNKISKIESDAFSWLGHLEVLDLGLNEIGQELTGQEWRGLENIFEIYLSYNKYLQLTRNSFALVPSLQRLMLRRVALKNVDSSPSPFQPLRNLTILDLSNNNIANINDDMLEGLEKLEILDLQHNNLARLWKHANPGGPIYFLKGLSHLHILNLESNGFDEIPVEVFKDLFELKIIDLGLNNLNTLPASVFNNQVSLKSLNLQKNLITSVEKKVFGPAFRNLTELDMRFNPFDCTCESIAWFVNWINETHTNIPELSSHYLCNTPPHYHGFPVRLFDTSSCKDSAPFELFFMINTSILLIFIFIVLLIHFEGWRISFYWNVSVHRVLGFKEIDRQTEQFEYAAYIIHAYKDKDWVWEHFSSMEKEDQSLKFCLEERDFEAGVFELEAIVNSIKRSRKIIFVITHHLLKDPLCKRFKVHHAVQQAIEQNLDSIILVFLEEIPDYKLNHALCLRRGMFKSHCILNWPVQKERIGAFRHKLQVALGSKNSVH

[6] = biological target: Nucleotide-binding oligomerization domain-containing protein 2 (Homo sapiens) (UniProt Q9HC29); experiment: Modulation of NOD2 (unknown origin)
Nucleotide-binding oligomerization domain-containing protein 2 (Homo sapiens), sequence (Q9HC29 whole entry, the tested form may be a part): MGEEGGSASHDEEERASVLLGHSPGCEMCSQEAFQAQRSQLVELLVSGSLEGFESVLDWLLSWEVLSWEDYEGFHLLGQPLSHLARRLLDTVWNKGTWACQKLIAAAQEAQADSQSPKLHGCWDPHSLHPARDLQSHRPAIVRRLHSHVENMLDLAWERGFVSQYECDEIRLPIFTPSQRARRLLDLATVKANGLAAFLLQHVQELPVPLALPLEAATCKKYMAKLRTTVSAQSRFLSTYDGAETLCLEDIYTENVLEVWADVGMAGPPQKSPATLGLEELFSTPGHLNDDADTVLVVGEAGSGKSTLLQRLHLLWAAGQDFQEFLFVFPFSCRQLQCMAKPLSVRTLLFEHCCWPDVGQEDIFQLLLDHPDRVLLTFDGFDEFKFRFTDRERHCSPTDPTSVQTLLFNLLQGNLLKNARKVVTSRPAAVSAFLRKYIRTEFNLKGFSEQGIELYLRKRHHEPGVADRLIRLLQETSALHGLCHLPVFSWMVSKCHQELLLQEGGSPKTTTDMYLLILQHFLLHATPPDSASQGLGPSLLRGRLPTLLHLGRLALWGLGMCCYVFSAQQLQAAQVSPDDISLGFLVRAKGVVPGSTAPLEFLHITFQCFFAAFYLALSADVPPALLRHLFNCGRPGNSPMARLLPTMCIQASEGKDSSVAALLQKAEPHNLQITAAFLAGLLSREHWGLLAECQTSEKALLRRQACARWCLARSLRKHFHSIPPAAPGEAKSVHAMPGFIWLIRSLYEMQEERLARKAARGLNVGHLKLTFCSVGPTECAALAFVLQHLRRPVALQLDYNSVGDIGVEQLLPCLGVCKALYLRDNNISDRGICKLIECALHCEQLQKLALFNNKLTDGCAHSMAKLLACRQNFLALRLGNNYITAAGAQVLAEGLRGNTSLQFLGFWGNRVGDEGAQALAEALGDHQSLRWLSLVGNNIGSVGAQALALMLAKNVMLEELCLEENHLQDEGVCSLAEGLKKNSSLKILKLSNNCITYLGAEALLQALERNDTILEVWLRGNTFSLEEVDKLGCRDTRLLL

SMILES	Activity [1]	Activity [2]	Activity [3]	Activity [4]	Activity [5]	Activity [6]
CCCCc1cc2c(nc(N)c3ccccc32)o1	inactive	inactive	inactive	inactive	inactive	–
NCCc1cc2c(o1)c(N)nc1ccccc12	Active	Active	Active	Active	Active	Active
